In ChEMBL document CHEMBL3507680, “University of Dundee, Gates Library screen for HepG2 cell viability”:

Test: Human HepG2 cell viability assay in 384 well format
Format: toxicity, cell-based
Set-up: dose 125 nL, time 70.5 hour; cytotoxicity at 70.5 h: concentration not given beside the values
Conditions: HepG2 cells, read-out: Inhibition

SMILES | cytotoxicity at 70.5 h
CCn1ccnc1CN1CCN(C(C)C(=O)NC2CCCC2)CC1 (centres undefined) | -4.1%
CN(C(=O)NCc1ccsc1)C1CCN(c2ccccc2)C1=O (centres undefined) | 0.0689%
CCc1nnc(NC(=O)Cc2c(C)nc(C)[nH]c2=O)s1 | 13.4%
Cc1nc(C)c(CC(=O)Nc2nnc(C3CC3)s2)c(=O)[nH]1 | -7.66%
Cc1occc1C(=O)NCc1cccnc1N(C)C | -14.4%
COc1ncccc1CNC(=O)c1c(C)oc(C)c1C | -8.16%
Cc1noc(C)c1C(=O)NCc1cccnc1N(C)C | -9.96%
CC(C)(C)NC(=O)CCOc1cccc(F)c1 | -5.57%
Cc1nc(C)c(CC(=O)Nc2nnc(C(C)C)s2)c(=O)[nH]1 | -5.16%
CCn1cc(CN2CCCN(C(=O)c3ccco3)CC2)cn1 | -6.43%
Cc1ccoc1C(=O)N1CCCN(Cc2cnn(C)c2)CC1 | -17.4%
COc1cc2ccccc2cc1C(=O)N1CCCC(c2nncn2C)C1 (centres undefined) | -11.4%
CCc1nc(CN2CCCC(NCc3nc(C)c(C)o3)C2)no1 (centres undefined) | -10.5%
CCOc1ncccc1C(=O)N1CCCC(c2nncn2C)C1 (centres undefined) | -3.42%
Cc1nn(C)c(C)c1C1CCCN1C(=O)c1ccnc(N(C)C)c1 (centres undefined) | -14.3%
COc1c(C2CCCN2C(=O)c2cnccn2)c(C)nn1C (centres undefined) | 20.2%
CCc1nnc(CNC2CCCN(Cc3noc(C4CC4)n3)C2)o1 (centres undefined) | -9.18%
Cc1nc(CN(C)C2CCN(Cc3ccc4c(c3)CCC4)C2)no1 (centres undefined) | -9.34%
Cn1cnnc1C1CCCN(C(=O)COc2ccccc2Cl)C1 (centres undefined) | -6.87%
Cn1cnnc1C1CCCN(C(=O)c2cc(Cl)cc(Cl)c2)C1 (centres undefined) | -8.15%

SMILES | cytotoxicity at 70.5 h
CN(C)c1cc(CNC(=O)c2n[nH]c(=O)c3ccccc23)ccn1 | 12.8%
Cn1cnnc1C1CCCN(C(=O)c2cc3ccccc3[nH]2)C1 (centres undefined) | -11.2%
Cc1nn(C)c(N2CCOCC2)c1CNCc1ccc(N(C)C)nc1 | 15.7%
Cc1nn(C)c(N2CCOCC2)c1CNCc1ccnn1C | -9.28%
COc1ncccc1CNCc1c(C)nn(C)c1N1CCOCC1 | -12.3%
CN(C)c1cc(CNC(=O)c2cc(Cl)ccn2)ccn1 | -11.8%
CCn1cc(CN2CCCN(C(=O)c3ccoc3C)CC2)cn1 | -7.59%
CCn1cc(CN2CCCN(C(=O)c3c(C)oc(C)c3C)CC2)cn1 | -12.8%
CNc1cc2c(nn1)CCN(C(=O)c1cc(C)no1)C2 | -7.41%
CNc1cc2c(nn1)CCN(C(=O)c1ccc3c(c1)CCC3)C2 | -4.27%
COc1c(C2CCCN2C(=O)c2ccc(C#N)cc2)c(C)nn1C (centres undefined) | -9.49%
O=C(CCc1nccs1)N1CCN(c2nccs2)CC1 | -7.6%
CCC1CN(CC(=O)Nc2cc(C)nn2C)CCO1 (centres undefined) | -5.03%
Cn1cnnc1C1CCN(C(=O)Cc2ccc3c(c2)OCCO3)CC1 | -2.32%
Cc1cnn(CC2CCCN2C(=O)c2cccc3c2OCO3)c1 (centres undefined) | -5.23%
Cc1cccc2c1CCN(c1cc(N3CCCC3CO)ncn1)C2 (centres undefined) | -10.5%
CC(NC(=O)NCCOc1ccc(Cl)cc1)c1nncn1C (centres undefined) | -12.4%
COc1ccc(CC(=O)N2CCCC(c3nncn3C)C2)cc1 (centres undefined) | -2.88%
COc1ccc(C(=O)N(C)Cc2ncc(C)c(OC)c2C)c(OC)c1 | -4.31%
COCCOc1ccccc1C(=O)N(C)Cc1ncc(C)c(OC)c1C | -5.65%

SMILES | cytotoxicity at 70.5 h
Cc1cc(C)c(C)c(OCCCNC(=O)NC(C)c2nncn2C)c1 (centres undefined) | 14.5%
Fc1cccc(CN2CCN(Cc3cscn3)CC2)c1 | -4.73%
COc1cccc(C(=O)N(C)Cc2ncc(C)c(OC)c2C)c1OC | -0.629%
COCc1ccccc1C(=O)N(C)Cc1ncc(C)c(OC)c1C | 19.4%
NC(=O)C1CCCN1c1cc(N2CCc3ccccc3C2)ncn1 (centres undefined) | -5.82%
c1cnnc(N2CCCC(NCc3ccc(-n4cncn4)cc3)C2)c1 (centres undefined) | -3.17%
Cc1noc2ncc(C(=O)N3CCCC(n4ccnc4C)C3)cc12 (centres undefined) | -7.39%
O=C(c1ccccc1OCC1CC1)N1CCCC1Cn1cccn1 (centres undefined) | 17.7%
O=C1COc2c(cccc2C(=O)N2CCCC2Cn2cccn2)N1 (centres undefined) | -8.08%
CN1CCN(c2cc(N3CCCC3CO)ncn2)Cc2ccccc21 (centres undefined) | 17.8%
COc1ccc2c(c1)CN(c1cc(N3CCCC3CO)ncn1)CC2 (centres undefined) | -7.51%
CC(C)c1n[nH]c(C2CN(Cc3nnc(C4CC4)n3C)CCO2)n1 (centres undefined) | -7.72%
Cc1nc(CN2CCCC(N(C)Cc3nnc(C4CC4)o3)C2)no1 (centres undefined) | 13.8%
CC(C)c1nnc2n1CCN(C(=O)c1cccc(OCC(N)=O)c1)C2 | -2.06%
CC(C)c1nc(CN2CCCC2CN2CCCC2)cs1 (centres undefined) | -7.95%
CCN1CCN(Cc2csc(C(C)C)n2)CC1 | -8.86%
Cc1nc(C)n(CC2CCCCN2Cc2cscn2)n1 (centres undefined) | -5.99%
Cc1nc(C)n(CC2CCCN2Cc2ccccn2)n1 (centres undefined) | -6.2%
CCC(O)CN1CCN(C(=O)Cc2nc(-c3ccco3)oc2C)CC1 (centres undefined) | -2.09%
